In test [1] the target is T1, 5-hydroxytryptamine receptor 2C (Homo sapiens, UniProt P28335).
T1 sequence (P28335 whole entry): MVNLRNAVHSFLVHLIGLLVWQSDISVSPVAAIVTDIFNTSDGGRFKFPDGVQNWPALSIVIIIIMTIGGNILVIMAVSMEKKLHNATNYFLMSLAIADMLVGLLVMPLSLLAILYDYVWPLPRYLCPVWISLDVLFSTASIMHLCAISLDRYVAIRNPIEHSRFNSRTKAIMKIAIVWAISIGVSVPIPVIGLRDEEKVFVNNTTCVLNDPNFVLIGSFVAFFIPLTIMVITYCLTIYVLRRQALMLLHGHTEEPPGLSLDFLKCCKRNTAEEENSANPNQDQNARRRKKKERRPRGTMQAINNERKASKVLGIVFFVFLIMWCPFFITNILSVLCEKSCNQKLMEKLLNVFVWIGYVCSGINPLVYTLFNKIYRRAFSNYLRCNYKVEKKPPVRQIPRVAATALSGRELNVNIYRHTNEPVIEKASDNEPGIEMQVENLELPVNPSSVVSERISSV

Test [2] deals with T2, Amine oxidase [flavin-containing] A (Homo sapiens, UniProt P21397).
T2 sequence (P21397 whole entry): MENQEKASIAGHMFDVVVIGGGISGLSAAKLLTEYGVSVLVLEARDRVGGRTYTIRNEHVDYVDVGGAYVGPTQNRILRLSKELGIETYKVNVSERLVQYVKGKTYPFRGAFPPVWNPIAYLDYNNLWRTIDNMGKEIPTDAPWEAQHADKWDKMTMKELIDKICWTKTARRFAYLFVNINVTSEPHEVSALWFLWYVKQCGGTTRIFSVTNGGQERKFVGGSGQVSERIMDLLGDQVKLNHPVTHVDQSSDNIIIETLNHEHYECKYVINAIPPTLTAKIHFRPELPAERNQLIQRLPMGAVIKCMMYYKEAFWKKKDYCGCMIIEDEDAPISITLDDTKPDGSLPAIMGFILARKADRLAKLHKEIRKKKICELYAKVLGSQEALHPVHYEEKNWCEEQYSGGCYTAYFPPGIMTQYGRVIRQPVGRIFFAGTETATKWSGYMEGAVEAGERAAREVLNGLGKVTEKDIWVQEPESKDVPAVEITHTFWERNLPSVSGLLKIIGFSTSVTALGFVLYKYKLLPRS
The class given is functional.

The target of test [3] is T3, Alpha-2A adrenergic receptor (Homo sapiens, UniProt P08913).
T3 sequence (P08913 whole entry): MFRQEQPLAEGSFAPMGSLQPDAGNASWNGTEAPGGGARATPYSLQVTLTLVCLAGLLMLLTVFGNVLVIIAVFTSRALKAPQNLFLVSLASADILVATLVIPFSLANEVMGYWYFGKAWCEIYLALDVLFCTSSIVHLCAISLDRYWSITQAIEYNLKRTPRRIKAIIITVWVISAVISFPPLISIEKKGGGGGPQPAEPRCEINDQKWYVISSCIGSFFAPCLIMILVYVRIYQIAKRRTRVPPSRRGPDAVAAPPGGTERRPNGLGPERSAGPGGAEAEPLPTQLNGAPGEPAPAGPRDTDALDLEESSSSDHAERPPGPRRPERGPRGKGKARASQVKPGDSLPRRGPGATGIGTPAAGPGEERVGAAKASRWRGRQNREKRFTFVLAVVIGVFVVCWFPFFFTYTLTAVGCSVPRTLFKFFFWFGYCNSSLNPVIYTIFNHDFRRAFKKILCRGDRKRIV
Format: functional, cell-based.

Another test deals with Cannabinoid receptor 1 (Homo sapiens, UniProt P21554). Format: functional, cell-based.
In test [4] the target is T4, Alpha-2C adrenergic receptor (Homo sapiens, UniProt P18825).
T4 sequence (P18825 whole entry): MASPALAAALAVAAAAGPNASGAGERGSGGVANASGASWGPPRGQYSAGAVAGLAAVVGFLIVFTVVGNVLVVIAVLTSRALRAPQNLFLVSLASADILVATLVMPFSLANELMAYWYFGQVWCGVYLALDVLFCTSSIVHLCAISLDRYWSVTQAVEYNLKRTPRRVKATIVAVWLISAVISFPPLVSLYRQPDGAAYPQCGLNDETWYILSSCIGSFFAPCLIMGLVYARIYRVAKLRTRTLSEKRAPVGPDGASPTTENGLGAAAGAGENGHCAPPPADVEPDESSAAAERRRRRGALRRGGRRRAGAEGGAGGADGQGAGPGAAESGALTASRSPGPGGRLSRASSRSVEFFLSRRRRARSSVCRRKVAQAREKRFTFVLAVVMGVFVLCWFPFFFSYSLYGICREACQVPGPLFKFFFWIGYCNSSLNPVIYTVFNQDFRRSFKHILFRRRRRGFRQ
The class given is functional.

Test [5] addresses Kappa-type opioid receptor (Homo sapiens, UniProt P41145).
Test [6] concerns the target Sodium-dependent dopamine transporter (Homo sapiens, UniProt Q01959).
Test [7] concerns the target Glutamate receptor ionotropic, NMDA 1 (Rattus norvegicus, UniProt P35439).
Note: assay procedure not described here.

Sodium-dependent dopamine transporter, sequence (Q01959 whole entry): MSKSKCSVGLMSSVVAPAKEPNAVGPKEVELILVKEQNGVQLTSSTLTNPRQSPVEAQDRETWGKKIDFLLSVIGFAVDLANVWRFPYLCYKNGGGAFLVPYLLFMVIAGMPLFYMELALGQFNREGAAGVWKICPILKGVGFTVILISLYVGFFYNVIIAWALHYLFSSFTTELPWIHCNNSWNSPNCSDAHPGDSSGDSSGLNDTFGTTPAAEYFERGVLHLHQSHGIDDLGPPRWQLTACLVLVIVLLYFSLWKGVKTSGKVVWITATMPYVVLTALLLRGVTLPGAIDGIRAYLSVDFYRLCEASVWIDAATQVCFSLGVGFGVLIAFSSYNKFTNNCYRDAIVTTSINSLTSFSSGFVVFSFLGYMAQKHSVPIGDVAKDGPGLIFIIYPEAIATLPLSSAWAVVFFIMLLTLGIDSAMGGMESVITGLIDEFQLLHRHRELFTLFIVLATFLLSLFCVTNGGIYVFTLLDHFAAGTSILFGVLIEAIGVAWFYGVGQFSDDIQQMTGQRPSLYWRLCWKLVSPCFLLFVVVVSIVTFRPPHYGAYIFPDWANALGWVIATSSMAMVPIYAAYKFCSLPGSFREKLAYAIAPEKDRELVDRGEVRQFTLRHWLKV
Cannabinoid receptor 1, sequence (P21554 whole entry): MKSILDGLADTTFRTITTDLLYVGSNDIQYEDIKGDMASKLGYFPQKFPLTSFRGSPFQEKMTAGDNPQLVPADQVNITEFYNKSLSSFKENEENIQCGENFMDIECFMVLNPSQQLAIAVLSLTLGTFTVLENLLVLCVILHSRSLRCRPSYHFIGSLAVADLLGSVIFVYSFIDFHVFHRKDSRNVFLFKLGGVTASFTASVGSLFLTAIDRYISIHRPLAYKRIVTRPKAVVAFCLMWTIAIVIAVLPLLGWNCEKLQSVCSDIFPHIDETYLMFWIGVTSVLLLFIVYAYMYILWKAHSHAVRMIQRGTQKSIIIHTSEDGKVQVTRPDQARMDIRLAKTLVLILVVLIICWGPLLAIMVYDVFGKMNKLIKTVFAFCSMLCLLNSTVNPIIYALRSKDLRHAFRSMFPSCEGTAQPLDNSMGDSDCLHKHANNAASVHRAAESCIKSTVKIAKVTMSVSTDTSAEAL
Kappa-type opioid receptor, sequence (P41145 whole entry): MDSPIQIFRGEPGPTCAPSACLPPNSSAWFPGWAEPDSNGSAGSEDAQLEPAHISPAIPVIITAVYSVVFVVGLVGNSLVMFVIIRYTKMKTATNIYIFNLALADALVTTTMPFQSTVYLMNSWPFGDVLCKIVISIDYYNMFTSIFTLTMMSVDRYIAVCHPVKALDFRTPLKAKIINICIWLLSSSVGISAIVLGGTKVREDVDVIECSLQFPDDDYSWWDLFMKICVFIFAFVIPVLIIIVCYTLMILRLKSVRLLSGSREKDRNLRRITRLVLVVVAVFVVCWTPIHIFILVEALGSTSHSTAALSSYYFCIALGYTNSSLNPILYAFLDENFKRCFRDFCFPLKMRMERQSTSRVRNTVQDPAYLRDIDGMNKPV

For the compound `NS(=O)(=O)c1cc(-c2nnn[nH]2)c(NCc2cccs2)cc1Cl` [AZOSEMIDE], the AC50 (in test [1]; in test [2]; in test [3]; at Cannabinoid receptor 1; in test [4]; in test [5]) was above 30 µM each time. In addition, the AC50 in test [6] and in test [7] was above 30 µM each time.

Take `C[N+](C)(C)CC(=O)O` [BETAINE]: the AC50 (in test [1]; in test [2]; in test [3]; at Cannabinoid receptor 1; in test [4]; in test [6]) was above 30 µM each time. Further, in test [7], the AC50 was above 30 µM.

As for `CCCC(=O)N1CCCN(c2nc(N)c3cc(OC)c(OC)cc3n2)CC1` [BUNAZOSIN], the AC50 in test [1] is above 30 µM; in test [2], above 30 µM; in test [3], 11 µM; on Cannabinoid receptor 1, above 30 µM; in test [4], 0.55 µM; in test [5], above 30 µM. Also, the AC50 in test [6] and in test [7] was above 30 µM each time.

Turning to `C[N+](C)(C)CCOC(N)=O` [CARBAMOYLCHOLINE], the AC50 is above 30 µM in test [1]; above 10 µM in test [2]; above 30 µM in test [3]; above 30 µM on Cannabinoid receptor 1; above 10 µM in test [4]; above 10 µM in test [5]. In addition, the AC50 in test [6] and in test [7] was above 10 µM in each case.

With `N[C@@H](CSCC(=O)O)C(=O)O` [CARBOCYSTEINE], the AC50 (in test [1]; in test [2]; in test [3]; at Cannabinoid receptor 1; in test [4]; in test [5]) was above 30 µM in each case. Further, the AC50 in test [6] and in test [7] was above 30 µM throughout.

For `CC(C)(N)Cc1ccc(Cl)cc1` [CHLORPHENTERMINE], the AC50 in test [1] is above 30 µM; in test [2] it was above 10 µM; in test [3] it was above 10 µM; on Cannabinoid receptor 1, above 30 µM; in test [4], above 10 µM; in test [5], above 10 µM. The AC50 in test [6] is 7.59 µM; in test [7] it was above 10 µM.

With `CN(C)[C@@H]1C(O)=C(C(N)=O)C(=O)[C@@]2(O)C(O)=C3C(=O)c4c(O)ccc(Cl)c4[C@@H](O)[C@H]3C[C@@H]12` [DEMECLOCYCLINE], the AC50 in test [1] was above 30 µM; in test [2] it was above 10 µM; in test [3] it was above 10 µM; in test [4] it was above 10 µM; in test [5] it was above 10 µM; in test [6], above 10 µM. The compound also had an AC50 in test [7] above 10 µM.

Consider `NS(=O)(=O)c1cc(Cl)c(Cl)c(S(N)(=O)=O)c1` [DICHLORPHENAMIDE], for which the AC50 in test [1] was above 30 µM; in test [2], above 10 µM; in test [3], above 10 µM; in test [4], above 10 µM; in test [5], above 10 µM; in test [6], above 10 µM. Also, the AC50 in test [7] is above 10 µM.

For the compound `C=C1C[C@@H]2[C@H](CC[C@]3(C)C(=O)CC[C@@H]23)[C@@]2(C)C=CC(=O)C=C12` [EXEMESTANE], the AC50 in test [1] was above 30 µM; in test [2], above 10 µM; in test [3] it was above 10 µM; on Cannabinoid receptor 1 it was above 30 µM; in test [4], above 10 µM; in test [5], 2.41 µM. Moreover, the results for the AC50 in test [6] and in test [7] were above 30 µM and above 10 µM, respectively.

Regarding `CC(C(O)c1ccc(O)cc1)N1CCC(Cc2ccccc2)CC1` (stereo not given) [IFENPRODIL], the AC50 in test [1] is above 30 µM; in test [2] it was above 30 µM; in test [3] it was 3.8 µM; at Cannabinoid receptor 1, above 30 µM; in test [4] it was 0.89 µM; in test [5] it was 1 µM. This compound also displayed an AC50 in test [6] of 1.2 µM.

`CC(=O)N(CC(O)CO)c1c(I)c(C(=O)NCC(O)CO)c(I)c(C(=O)NCC(O)CO)c1I` (stereo not given) [IOHEXOL]: the AC50 is above 30 µM in test [1]; above 10 µM in test [2]; above 10 µM in test [3]; above 30 µM on Cannabinoid receptor 1; above 10 µM in test [4]; above 10 µM in test [5]. The AC50 is above 30 µM in test [6] and above 10 µM in test [7].

With `CN(CCCN1c2ccccc2CCc2ccccc21)CC(=O)c1ccc(Cl)cc1` [LOFEPRAMINE], the AC50 in test [1] is 2.7 µM; in test [3], above 30 µM; on Cannabinoid receptor 1, 3.5 µM; in test [4], 17 µM; in test [5], 4.8 µM; in test [6] it was 21 µM. The activity in test [7] was half-maximal at 25 µM (AC50).

Consider `CN(C/C=C/c1ccccc1)Cc1cccc2ccccc12` [NAFTIFINE], for which the concentration at half-maximal activity (AC50) in test [1] was above 30 µM; in test [2], above 10 µM; in test [3], above 10 µM; at Cannabinoid receptor 1, above 30 µM; in test [4], 4.8 µM; in test [5] it was 10.6 µM. Besides, the AC50 in test [6] is 17.3 µM; in test [7], above 10 µM.

Consider `CC(C)NCC1CCc2cc(CO)c([N+](=O)[O-])cc2N1` (stereo not given) [OXAMNIQUINE], for which the AC50 is above 30 µM in test [1]; above 10 µM in test [2]; above 10 µM in test [3]; above 30 µM at Cannabinoid receptor 1; above 10 µM in test [4]; 13.4 µM in test [5]. In addition, the AC50 was above 30 µM in test [6] and above 10 µM in test [7].

Take `CN(C)CCCN1c2ccccc2Sc2ccccc21` [PROMAZINE]: the AC50 was 0.15 µM in test [1]; above 10 µM in test [2]; above 10 µM in test [3]; above 30 µM on Cannabinoid receptor 1; 0.82 µM in test [4]; 1.99 µM in test [5]. The AC50 in test [6] and in test [7] was above 10 µM each time.

Consider `O=P(O)(O)C(O)(Cc1cccnc1)P(=O)(O)O` [RISEDRONIC ACID], for which the AC50 (in test [1]; in test [2]; in test [3]; on Cannabinoid receptor 1; in test [4]; in test [5]) was above 30 µM each time. Moreover, the AC50 in test [6] and in test [7] was above 30 µM in each case.

On to `CC(=O)N[C@H]1[C@H]([C@H](O)[C@H](O)CO)OC(C(=O)O)=C[C@@H]1N=C(N)N` [ZANAMIVIR], for which the AC50 in test [1] was above 30 µM; in test [2], above 30 µM; in test [3], above 10 µM; in test [4], above 30 µM; in test [5], above 10 µM; in test [6], above 30 µM. Besides, in test [7], the AC50 was above 10 µM.

Broadly, the AC50 is the concentration at which the activity in the assay is half-maximal. A higher AC50 goes with activity only at high concentration.
